Publication PMC6979384, “Characterization of the plant homeodomain (PHD) reader family for their histone tail interactions” (Epigenetics & Chromatin, 2020)

What was measured:
Test in all cases: Histone peptide microarray
Assay type in all cases: binding, human
AIRE (PP) = conditions: GST-tagged AIRE (PP); histone peptide array; arrays performed twice, n of 4
Summary of the method: (§1)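 GST-tagged PHD readers, 0.5 μM, probed on a microarray of 293 synthetic histone peptides carrying single or combinatorial PTMs (optimized Petell protocol). Signals are averaged over 4 replicates and expressed as relative binding.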

BAZ2B = conditions: GST-tagged BAZ2B; histone peptide array; arrays performed twice, n of 4
Summary of the method: as §1

BPTF (PB) = conditions: GST-tagged BPTF (PB = PHD + Bromodomain); histone peptide array; arrays performed twice, n of 4
Summary of the method: as §1

CHD4 (PPCC) = conditions: GST-tagged CHD4 (PPCC = Dual PHD + Dual Chromodomain); histone peptide array; arrays performed twice, n of 4
Summary of the method: as §1

CHD5 (PCC) = conditions: GST-tagged CHD5 (PCC = PHD + Dual Chromodomain); histone peptide array; arrays performed twice, n of 4
Summary of the method: as §1

CHD5 (PPCC) = conditions: GST-tagged CHD5 (PPCC = Dual PHD + Dual Chromodomain); histone peptide array; arrays performed twice, n of 4
Summary of the method: as §1

DIDO1 = conditions: GST-tagged DIDO1; histone peptide array; arrays performed twice, n of 4
Summary of the method: as §1

DPF2 (PPC2W2) = conditions: GST-tagged DPF2 (PPC2W2 = Dual PHD + C2W2-type Zn-finger); histone peptide array; arrays performed twice, n of 4
Summary of the method: as §1

ING1 = conditions: GST-tagged ING1; histone peptide array; arrays performed twice, n of 4
Summary of the method: as §1

ING2 = conditions: GST-tagged ING2; histone peptide array; arrays performed twice, n of 4
Summary of the method: as §1

ING3 = conditions: GST-tagged ING3; histone peptide array; arrays performed twice, n of 4
Summary of the method: as §1

ING4 = conditions: GST-tagged ING4; histone peptide array; arrays performed twice, n of 4
Summary of the method: as §1

ING5 = conditions: GST-tagged ING5; histone peptide array; arrays performed twice, n of 4
Summary of the method: as §1

KDM4C (TTP) = conditions: GST-tagged KDM4C (TTP = Tandem Tudor domain + PHD); histone peptide array; arrays performed twice, n of 4
Summary of the method: as §1

KDM5A (1) = conditions: GST-tagged KDM5A (1); histone peptide array; arrays performed twice, n of 4
Summary of the method: as §1

KDM5A (3) = conditions: GST-tagged KDM5A (3); histone peptide array; arrays performed twice, n of 4
Summary of the method: as §1

KDM5B (1) = conditions: GST-tagged KDM5B (1); histone peptide array; arrays performed twice, n of 4
Summary of the method: as §1

KDM5B (3) = conditions: GST-tagged KDM5B (3); histone peptide array; arrays performed twice, n of 4
Summary of the method: as §1

KDM7A = conditions: GST-tagged KDM7A; histone peptide array; arrays performed twice, n of 4
Summary of the method: as §1

MLL5 = conditions: GST-tagged MLL5; histone peptide array; arrays performed twice, n of 4
Summary of the method: as §1

MORC3 (CW) = conditions: GST-tagged MORC3 (CW = CW-type Zn-finger); histone peptide array; arrays performed twice, n of 4
Summary of the method: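 GST-tagged PHD finger readers were expressed, purified and applied at 0.5 μM to a microarray of 293 synthetic histone peptides carrying single or combinatorial PTMs, using an optimized protocol. Binding signals are averages with standard deviation from 4 replicates.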

PHF13 = conditions: GST-tagged PHF13; histone peptide array; arrays performed twice, n of 4
Summary of the method: as §1

PHF21A = conditions: GST-tagged PHF21A; histone peptide array; arrays performed twice, n of 4
Summary of the method: as §1

PHF23 = conditions: GST-tagged PHF23; histone peptide array; arrays performed twice, n of 4
Summary of the method: as §1

PHF2 = conditions: GST-tagged PHF2; histone peptide array; arrays performed twice, n of 4
Summary of the method: as §1

PHF8 = conditions: GST-tagged PHF8; histone peptide array; arrays performed twice, n of 4
Summary of the method: as §1

PHRF1 (RP) = conditions: GST-tagged PHRF1 (RP); histone peptide array; arrays performed twice, n of 4
Summary of the method: as §1

RAG2 = conditions: GST-tagged RAG2; histone peptide array; arrays performed twice, n of 4
Summary of the method: as §1

SP140L = conditions: GST-tagged SP140L; histone peptide array; arrays performed twice, n of 4
Summary of the method: as §1

TAF3 = conditions: GST-tagged TAF3; histone peptide array; arrays performed twice, n of 4
Summary of the method: as §1

TRIM66 (PB) = conditions: GST-tagged TRIM66 (PB = PHD + Bromodomain); histone peptide array; arrays performed twice, n of 4
Summary of the method: as §1

Substance | Array Heatmap signal, AIRE (PP) (AIRE (PP)) | Array Heatmap signal, BAZ2B (BAZ2B) | Array Heatmap signal, BPTF (PB) (BPTF (PB)) | Array Heatmap signal, CHD4 (PPCC) (CHD4 (PPCC)) | Array Heatmap signal, CHD5 (PCC) (CHD5 (PCC)) | Array Heatmap signal, CHD5 (PPCC) (CHD5 (PPCC)) | Array Heatmap signal, DIDO1 (DIDO1) | Array Heatmap signal, DPF2 (PPC2W2) (DPF2 (PPC2W2)) | Array Heatmap signal, ING1 (ING1) | Array Heatmap signal, ING2 (ING2) | Array Heatmap signal, ING3 (ING3) | Array Heatmap signal, ING4 (ING4) | Array Heatmap signal, ING5 (ING5) | Array Heatmap signal, KDM4C (TTP) (KDM4C (TTP)) | Array Heatmap signal, KDM5A (1) (KDM5A (1)) | Array Heatmap signal, KDM5A (3) (KDM5A (3)) | Array Heatmap signal, KDM5B (1) (KDM5B (1)) | Array Heatmap signal, KDM5B (3) (KDM5B (3)) | Array Heatmap signal, KDM7A (KDM7A) | Array Heatmap signal, MLL5 (MLL5) | also measured
H3Cit2 + K4ac + K9ac + K14ac + K18ac: H3 1-20 | 0.5046 | 0.5241 | 0.3441 | 0.5849 | 0.8259 | 0.5544 | 0.6333 | 0.6168 | 0.5011 | 0.5962 | 0.4982 | 0.466 | 0.342 | 0.4985 | 0.4761 | 0.3736 | 0.646 | 0.5221 | 0.3757 | 0.5262 | Array Heatmap signal, MORC3 (CW) (MORC3 (CW)): 0.3458; Array Heatmap signal, PHF13 (PHF13): 0.6115; Array Heatmap signal, PHF21A (PHF21A): 0.4553; Array Heatmap signal, PHF23 (PHF23): 0.5298; Array Heatmap signal, PHF2 (PHF2): 0.465; Array Heatmap signal, PHF8 (PHF8): 0.3508; Array Heatmap signal, PHRF1 (RP) (PHRF1 (RP)): 0.4027; Array Heatmap signal, RAG2 (RAG2): 0.246; Array Heatmap signal, SP140L (SP140L): 0.3325; Array Heatmap signal, TAF3 (TAF3): 0.2461; Array Heatmap signal, TRIM66 (PB) (TRIM66 (PB)): 0.5899
H3Cit2 + K4me2: H3 1-20 | 0.3883 | 0.45 | 0.3387 | 0.5675 | 0.7759 | 0.5328 | 0.7273 | 0.6839 | 0.5902 | 0.6329 | 0.4571 | 0.4531 | 0.3412 | 0.4533 | 0.4439 | 0.6902 | 0.6545 | 0.6867 | 0.3325 | 0.5743 | Array Heatmap signal, MORC3 (CW) (MORC3 (CW)): 0.7482; Array Heatmap signal, PHF13 (PHF13): 0.6272; Array Heatmap signal, PHF21A (PHF21A): 0.4507; Array Heatmap signal, PHF23 (PHF23): 0.5864; Array Heatmap signal, PHF2 (PHF2): 0.7165; Array Heatmap signal, PHF8 (PHF8): 0.4758; Array Heatmap signal, PHRF1 (RP) (PHRF1 (RP)): 0.4884; Array Heatmap signal, RAG2 (RAG2): 0.6011; Array Heatmap signal, SP140L (SP140L): 0.366; Array Heatmap signal, TAF3 (TAF3): 0.4779; Array Heatmap signal, TRIM66 (PB) (TRIM66 (PB)): 0.6817
H3Cit2 + K4me3 + K9ac + K14ac + K18ac: H3 1-20 | 0.3964 | 0.483 | 0.3451 | 0.6008 | 0.7154 | 0.5144 | 0.8494 | 0.6832 | 0.5664 | 0.6235 | 0.4771 | 0.4376 | 0.327 | 0.4327 | 0.4209 | 0.5236 | 0.5319 | 0.4827 | 0.3427 | 0.6331 | Array Heatmap signal, MORC3 (CW) (MORC3 (CW)): 0.4875; Array Heatmap signal, PHF13 (PHF13): 0.5903; Array Heatmap signal, PHF21A (PHF21A): 0.4881; Array Heatmap signal, PHF23 (PHF23): 0.5313; Array Heatmap signal, PHF2 (PHF2): 0.7451; Array Heatmap signal, PHF8 (PHF8): 0.4072; Array Heatmap signal, PHRF1 (RP) (PHRF1 (RP)): 0.4303; Array Heatmap signal, RAG2 (RAG2): 0.3489; Array Heatmap signal, SP140L (SP140L): 0.3551; Array Heatmap signal, TAF3 (TAF3): 0.287; Array Heatmap signal, TRIM66 (PB) (TRIM66 (PB)): 0.557
